Data set [1] is described as follows: in vitro stability in 10% rat plasma, LC-MS/MS. The class given is in vitro ADME. As to conditions: room temperature. Here is the method:
(§1) Consequently, the stability of select, non-PEGylated analogs was evaluated in vitro in the presence of 10% rat or human plasma. Briefly, samples of each peptide were diluted to 100 ng/ml into PBS containing 10% of rat or human plasma. Each sample was then incubated at room temperature and analyzed by LC-MS/MS to quantitate the intact peptide remaining at select time points over 6 hours.

A short description of data set [2]: in vitro stability in 10% human plasma, LC-MS/MS. The class given is in vitro ADME. The settings on record: room temperature. The method, then: as §1
For data set [3], the target named is T1, CGRP1 receptor (human neuroblastoma cell (SK-N-MC) membrane) (Homo sapiens, UniProt O60894+Q16602).
T1 construct: human neuroblastoma cell (SK-N-MC) membrane suspension; purchased PerkinElmer; host or cells: SK-N-MC human neuroblastoma cell membranes (endogenous receptor)
Put plainly: CGRP1 binding assay (125I-hαCGRP displacement). As to conditions: Table 3B. Here is the method:
CGRP1 binding experiments. […] The plates were incubated at room temperature for 2 hour with shaking at 60 rpm, then the contents of each well were filtered over 0.5% polyethyleneimine (PEI)-treated (at least one hour) GF/C 96-well filter plates. The GF/C filter plates were washed 6 times with ice-cold 50 mM Tris, pH 7.5 and dried in an oven at 55 C for 1 hour. The bottoms of the GF/C plates were then sealed, and 40 μl Microscint™ 20 was added to each well, then the tops of the GF/C plates were sealed with TopSeal™-A, a press-on adhesive sealing film, and the GF/C plates were counted with TopCount NXT (Packard). The data were analyzed by using ActivityBase (IDBS) or Prizm (GraphPad) software.

Data set [4] deals with T2, CGRP1 receptor (Homo sapiens, UniProt O60894+Q16602).
T2 construct: SK-N-MC cells express CRLR and RAMP1, which form CGRP1 receptor; endogenous in cells; host or cells: SK-N-MC human neuroblastoma cells
The data set can be described thus: in vitro CGRP1 receptor mediated cAMP assay in SK-N-MC cells. It counts as cell-based. The method in brief:
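Intracellular cAMP served as the Gs-coupled CGRP1 readout in endogenously expressing SK-N-MC cells. After a 15-minute room-temperature step in plasma-free medium, cell lysates (30 minutes, 37° C) went into a competitive ELISA with a cAMP-AP conjugate and anti-cAMP antibody for 1 hour, then a 30-minute substrate enhancer step before reading.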
In general terms: Cyclic AMP is a second messenger, typically raised through Gs and lowered through Gi signalling.

Where [5] appears, read: read-out: time at which 50% remains (converted).
[6] abbreviates: read-out: time at which 50% depleted.
[7] abbreviates: read-out: time at which 50% depleted / detectable.

Consider 13 compounds from US8168592B2 (Amgen Inc., priority 2005, dated 2012).

The Ki is the equilibrium dissociation constant of an inhibitor or competing ligand from its target. A high value points to lower affinity. By IC50 is commonly meant the concentration at which inhibition is half-maximal. Usually share remaining stands for the share of the starting amount still present when the sample was taken. Higher therefore signals greater stability.

Square brackets hold non-standard residues; d marks the D form. Peptide text beside a SMILES is read from it. 1Nal = N[C@@H](Cc1cccc2ccccc12)C(=O)O Where only a bound is given, the exact number is not on record here.

T1 sequence (Q16602 23-461): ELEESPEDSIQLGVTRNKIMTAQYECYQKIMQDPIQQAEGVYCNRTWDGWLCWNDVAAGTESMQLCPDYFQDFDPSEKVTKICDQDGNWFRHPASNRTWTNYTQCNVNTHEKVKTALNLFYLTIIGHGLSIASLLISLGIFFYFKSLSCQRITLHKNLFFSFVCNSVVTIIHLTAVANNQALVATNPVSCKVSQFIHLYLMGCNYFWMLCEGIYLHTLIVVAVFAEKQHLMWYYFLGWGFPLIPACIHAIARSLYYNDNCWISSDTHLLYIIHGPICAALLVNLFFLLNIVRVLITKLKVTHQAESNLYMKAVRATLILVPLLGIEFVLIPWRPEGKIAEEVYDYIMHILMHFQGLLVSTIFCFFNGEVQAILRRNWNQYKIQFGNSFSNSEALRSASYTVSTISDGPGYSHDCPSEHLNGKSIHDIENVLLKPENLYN
T1 sequence (O60894 27-148): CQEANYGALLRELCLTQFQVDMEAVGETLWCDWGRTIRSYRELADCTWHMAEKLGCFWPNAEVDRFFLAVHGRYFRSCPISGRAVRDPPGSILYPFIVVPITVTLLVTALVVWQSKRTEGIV
T2 sequence (Q16602 23-461): as the sequence (Q16602 23-461) above
T2 sequence (O60894 27-148): as the sequence (O60894 27-148) above

In the case of “Ac-WVTHQLAGLLSQSGGVVRKNFVPTDVGPFAF-NH2 [SEQ ID NO:39]”, the “time at which about 10% of the starting concentration remains” value is “about 5 hours” in data set [1] and “about 4 hours” in data set [2]. In addition, the results for the half-life at 100 ng/ml in data set [1] (setting [5]) and in data set [2] (setting [5]) were about 90 min and about 60 min, respectively.
“685 (Ac-WVTHRLAGLLSRSGGVVK(20 kDa PEG)NNFVPTDVGPFAF-NH2) [compound 685]” returned a Ki in data set [3] of 155 nM. That is a sub-micromolar value.
`CC(C)C[C@H](NC(=O)CNC(=O)[C@H](C)NC(=O)[C@H](CC(C)C)NC(=O)[C@H](CCCNC(=N)N)NC(=O)[C@H](Cc1c[nH]cn1)NC(=O)[C@@H](NC(=O)[C@@H](NC(=O)[C@@H](N)Cc1cccc2ccccc12)C(C)C)[C@@H](C)O)C(=O)N[C@@H](CC(C)C)C(=O)N[C@@H](CO)C(=O)N[C@@H](CCCNC(=N)N)C(=O)N[C@@H](CO)C(=O)NCC(=O)NCC(=O)N[C@H](C(=O)N[C@H](C(=O)N[C@@H](CCCCN)C(=O)N[C@@H](CC(N)=O)C(=O)N[C@@H](CC(N)=O)C(=O)N[C@@H](Cc1ccccc1)C(=O)N[C@H](C(=O)N1CCC[C@H]1C(=O)N[C@H](C(=O)N[C@@H](CC(=O)O)C(=O)N[C@H](C(=O)NCC(=O)N1CCC[C@H]1C(=O)N[C@@H](Cc1ccccc1)C(=O)N[C@@H](C)C(=O)N[C@@H](Cc1ccccc1)C(N)=O)C(C)C)[C@@H](C)O)C(C)C)C(C)C)C(C)C` [compound 701] (H-[1Nal]VTHRLAGLLSRSGGVVKNNFVPTDVGPFAF-NH2): the Ki in data set [3] is 0.14 nM.
For “687 (Ac-WVTHRLAGLLSRSGGVVK(20 kDa PEG)NNFVPTDVGPFAF-NH2) [compound 687]”, in data set [3], the Ki is 0.49 nM.
Take `CC(=O)NCSC[C@H](NC(=O)[C@@H](NC(=O)[C@H](C)NC(=O)[C@@H](NC(=O)[C@H](CC(=O)O)NC(=O)[C@H](CO)NC(=O)[C@H](C)N)[C@@H](C)O)[C@@H](C)O)C(=O)N[C@H](C(=O)N[C@H](C(=O)N[C@@H](Cc1c[nH]cn1)C(=O)N[C@@H](CCCNC(=N)N)C(=O)N[C@@H](CC(C)C)C(=O)N[C@@H](C)C(=O)NCC(=O)N[C@@H](CC(C)C)C(=O)N[C@@H](CC(C)C)C(=O)N[C@@H](CO)C(=O)N[C@@H](CCCNC(=N)N)C(=O)N[C@@H](CO)C(=O)NCC(=O)NCC(=O)N[C@H](C(=O)N[C@H](C(=O)N[C@@H](CCCCN)C(=O)N[C@@H](CC(N)=O)C(=O)N[C@@H](CC(N)=O)C(=O)N[C@@H](Cc1ccccc1)C(=O)N[C@H](C(=O)N1CCC[C@H]1C(=O)N[C@H](C(=O)N[C@@H](CC(N)=O)C(=O)N[C@H](C(=O)NCC(=O)N[C@@H](CO)C(=O)N[C@@H](CCCCN)C(=O)N[C@@H](C)C(=O)N[C@@H](Cc1ccccc1)C(N)=O)C(C)C)[C@@H](C)O)C(C)C)C(C)C)C(C)C)[C@@H](C)O)C(C)C` [compound 707]: the affinity in data set [3], expressed as Ki, was 20.8 nM.
Regarding `CC(C)[C@H](NC(=O)[C@H](CC(=O)O)NC(=O)[C@@H](NC(=O)[C@@H]1CCCN1C(=O)[C@@H](NC(=O)[C@@H](N)Cc1ccccc1)C(C)C)[C@@H](C)O)C(=O)NCC(=O)N1CCC[C@@H]1C(=O)N[C@@H](Cc1ccccc1)C(=O)N[C@@H](C)C(=O)N[C@@H](Cc1ccccc1)C(N)=O` [compound 713], in data set [3], the Ki was over 1000 nM.
`CC(C)[C@H](NC(=O)[C@@H](N)Cc1ccccc1)C(=O)N1CCC[C@H]1C(=O)N[C@H](C(=O)N[C@@H](CC(=O)O)C(=O)N[C@@H](C(=O)NCC(=O)N1CCC[C@H]1C(=O)N[C@@H](Cc1ccccc1)C(=O)N[C@@H](C)C(=O)N[C@@H](Cc1ccccc1)C(N)=O)C(C)C)[C@@H](C)O` [compound 711] gave a Ki in data set [3] of over 1000 nM.
The compound `CC(C)[C@H](NC(=O)[C@H](CC(=O)O)NC(=O)[C@@H](NC(=O)[C@@H]1CCCN1C(=O)[C@@H](NC(=O)[C@@H](N)Cc1ccccc1)C(C)C)[C@@H](C)O)C(=O)NCC(=O)N1CCC[C@H]1C(=O)N[C@H](Cc1ccccc1)C(=O)N[C@@H](C)C(=O)N[C@@H](Cc1ccccc1)C(N)=O` [compound 712] yielded a Ki in data set [3] of over 1000 nM.
In the case of `CC(=O)N[C@@H](Cc1c[nH]c2ccccc12)C(=O)N[C@H](C(=O)N[C@H](C(=O)N[C@@H](Cc1cnc[nH]1)C(=O)N[C@@H](CCCN=C(N)N)C(=O)N[C@@H](CC(C)C)C(=O)N[C@@H](C)C(=O)NCC(=O)N[C@@H](CC(C)C)C(=O)N[C@@H](CC(C)C)C(=O)N[C@@H](CO)C(=O)N[C@@H](CCCN=C(N)N)C(=O)N[C@@H](CO)C(=O)NCC(=O)NCC(=O)N[C@H](C(=O)N[C@H](C(=O)N[C@@H](CCCN=C(N)N)C(=O)N[C@@H](CCCCN)C(=O)N[C@@H](CC(N)=O)C(=O)N[C@@H](Cc1ccccc1)C(=O)N[C@H](C(=O)N1CCC[C@H]1C(=O)N[C@H](C(=O)N[C@@H](CC(=O)O)C(=O)N[C@H](C(=O)NCC(=O)N1CCC[C@H]1C(=O)N[C@@H](Cc1ccccc1)C(=O)N[C@@H](C)C(=O)N[C@@H](Cc1ccccc1)C(N)=O)C(C)C)[C@@H](C)O)C(C)C)C(C)C)C(C)C)[C@@H](C)O)C(C)C` [SEQ ID NO:7], the “time at which about 10% of the starting concentration remains” value was about 2.5 h in data set [1] and “about 1 hours” in data set [2]. Besides, the values for the half-life at 100 ng/ml in data set [1] (setting [6]) and in data set [2] (setting [7]) were about 45 min and under 30 min, respectively.
`CC(C)[C@H](NC(=O)[C@H](CC(=O)O)NC(=O)[C@@H](NC(=O)[C@@H]1CCCN1C(=O)[C@@H](NC(=O)[C@@H](N)Cc1ccccc1)C(C)C)[C@@H](C)O)C(=O)NCC(=O)N1CCC[C@H]1C(=O)N[C@@H](Cc1ccccc1)C(=O)N[C@H](C)C(=O)N[C@@H](Cc1ccccc1)C(N)=O` [compound 715] registered a Ki in data set [3] of over 1000 nM.
As to `CC(=O)N[C@@H](Cc1c[nH]c2ccccc12)C(=O)N[C@H](C(=O)N[C@H](C(=O)N[C@@H](Cc1cnc[nH]1)C(=O)N[C@@H](CCCCNC(=N)N)C(=O)N[C@@H](CC(C)C)C(=O)N[C@@H](C)C(=O)NCC(=O)N[C@@H](CC(C)C)C(=O)N[C@@H](CC(C)C)C(=O)N[C@@H](CO)C(=O)N[C@@H](CCCCNC(=N)N)C(=O)N[C@@H](CO)C(=O)NCC(=O)NCC(=O)N[C@H](C(=O)N[C@H](C(=O)N[C@@H](CCCNC(=N)N)C(=O)N[C@@H](CCCCN)C(=O)N[C@@H](CC(N)=O)C(=O)N[C@@H](Cc1ccccc1)C(=O)N[C@H](C(=O)N1CCC[C@H]1C(=O)N[C@H](C(=O)N[C@@H](CC(=O)O)C(=O)N[C@H](C(=O)NCC(=O)N1CCC[C@H]1C(=O)N[C@@H](Cc1ccccc1)C(=O)N[C@@H](C)C(=O)N[C@@H](Cc1ccccc1)C(N)=O)C(C)C)[C@@H](C)O)C(C)C)C(C)C)C(C)C)[C@@H](C)O)C(C)C` [SEQ ID NO:25], the “reduced antagonist activity relative to the single-substitution analogs” value in data set [4] (non-PEGylated double substitution at R11 and R18) is “about 5 fold”. Moreover, the “time at which about 10% of the starting concentration remains” value in data set [1] is reported as “about 5 hours”; in data set [2], “about 2 hours”. The half-life at 100 ng/ml was about 90 min in data set [1] (setting [5]) and about 30 min in data set [2] (setting [7]).
Turning to “Ac-WVTHRLAGLLSQSGGVVRKNFVPTDVGPFAF-NH2 [SEQ ID NO:37]”, the results for the “time at which about 10% of the starting concentration remains” value in data set [1] and in data set [2] were about 2.5 h and “about 1 hours”, respectively. Further, the half-life at 100 ng/ml in data set [1] (setting [6]) was about 45 min; in data set [2] (setting [7]) it was under 30 min.
With `CC(=O)N[C@@H](Cc1c[nH]c2ccccc12)C(=O)N[C@H](C(=O)N[C@H](C(=O)N[C@@H](Cc1cnc[nH]1)C(=O)N[C@@H](CCCN=C(N)N)C(=O)N[C@@H](CC(C)C)C(=O)N[C@@H](C)C(=O)NCC(=O)N[C@@H](CC(C)C)C(=O)N[C@@H](CC(C)C)C(=O)N[C@@H](CO)C(=O)N[C@@H](CCCN=C(N)N)C(=O)N[C@@H](CO)C(=O)NCC(=O)NCC(=O)N[C@H](C(=O)N[C@H](C(=O)N[C@@H](CCCN=C(N)N)C(=O)N[C@@H](CCCCN)C(=O)N[C@@H](CC(N)=O)C(=O)N[C@@H](Cc1ccccc1)C(=O)N[C@H](C(=O)N1CCC[C@H]1C(=O)N[C@H](C(=O)N[C@@H](CC(=O)O)C(=O)N[C@H](C(=O)NCC(=O)N1CCC[C@H]1C(=O)N[C@@H](Cc1ccccc1)C(=O)N[C@@H](C)C(=O)N[C@@H](Cc1ccccc1)C(N)=O)C(C)C)[C@@H](C)O)C(C)C)C(C)C)C(C)C)[C@@H](C)O)C(C)C` [compound 7], in data set [4] (Table 3, unconjugated CGRP peptide analogs, n = 2-4, read-out: IC50), the IC50 was determined as 0.13 nM. Further, the “% Remaining” value in data set [1] (100 ng/ml, 0 h) is reported as 100.0%. The compound further registered an amount remaining at 0.5 h, 100 ng/ml in data set [1] (100 ng/ml, 0.5 h) of 55.4%. Also, the amount remaining at 1 h, 100 ng/ml in data set [1] (100 ng/ml, 1 h) came to 34.5%. Besides, the amount remaining at 2 h, 100 ng/ml in data set [1] (100 ng/ml, 2 h) was 8%. This compound also returned an amount remaining at 3 h, 100 ng/ml in data set [1] (100 ng/ml, 3 h) of 5.2%. In data set [1] (100 ng/ml, 4 h), this compound showed a fraction remaining at 4 h, 100 ng/ml of 1.4%. The compound further returned a share remaining at 5 h, 100 ng/ml in data set [1] (100 ng/ml, 5 h) of 1.7%. For the same compound, in data set [1] (100 ng/ml, 6 h), the amount remaining at 6 h, 100 ng/ml came out at 0.6%.
